In patent US9598401B2, “Substituted heteroaryl compounds and methods of use thereof” (Sunshine Lake Pharma Co., Ltd., priority 2013, dated 2017):

Assays:
dopamine D2S receptor = dopamine D2S receptor (Homo sapiens (Human), UniProt P14416); test: Affinity for human dopamine D2S receptor ([3H]methyl-spiperone binding); conditions: 0.3 nM [3H]methyl-spiperone, cell membrane homogenates, 22° C., 60 minutes
Protocol: Cell membrane homogenates (24 μg protein) were incubated at 22° C. for 60 minutes with 0.3 nM [3H]methyl-spiperone in the absence or presence of the test compound in a buffer solution containing 50 mM Tris-HCl (pH 7.4), 120 mM NaCl, 5 mM KCl, 5 mM MgCl2 and 1 mM EDTA.
The non-specific binding value was determined by incubating the same mixture in the presence of 10 μM (+)butaclamol.
Following the incubation, the samples were filtered rapidly under vacuum through glass fiber filter (GF/B, Packard) presoaked with 0.3% PEI and rinsed several times with ice-cold 50 mM Tris-HCl using a 96-sample cell harvester (Unifilter, Packard). The filters were dried and the retained radioactivity was measured in a scintillation counter (Topcount, Packard) using a scintillation cocktail (Microscint 0, Packard).
The experimental results were expressed as a percent inhibition of the control radioligand specific binding, and Ki was the inhibition constant. The standard reference compound was (+)butaclamol, which was tested in each experiment at several concentrations to obtain a competition curve from which its IC50 was calculated, and then Ki value was calculated by ChengPrusoff equation.

serotonin transporter = serotonin transporter (Rattus norvegicus (Rat), UniProt P31652); test: Inhibitory effect on [3H]5-HT uptake in rat synaptosome; type: biochemical; conditions: rat brain synaptosomes, 37° C., 15 minutes, 0.1 μCi [3H]5-HT
serotonin transporter, sequence (P31652 whole entry): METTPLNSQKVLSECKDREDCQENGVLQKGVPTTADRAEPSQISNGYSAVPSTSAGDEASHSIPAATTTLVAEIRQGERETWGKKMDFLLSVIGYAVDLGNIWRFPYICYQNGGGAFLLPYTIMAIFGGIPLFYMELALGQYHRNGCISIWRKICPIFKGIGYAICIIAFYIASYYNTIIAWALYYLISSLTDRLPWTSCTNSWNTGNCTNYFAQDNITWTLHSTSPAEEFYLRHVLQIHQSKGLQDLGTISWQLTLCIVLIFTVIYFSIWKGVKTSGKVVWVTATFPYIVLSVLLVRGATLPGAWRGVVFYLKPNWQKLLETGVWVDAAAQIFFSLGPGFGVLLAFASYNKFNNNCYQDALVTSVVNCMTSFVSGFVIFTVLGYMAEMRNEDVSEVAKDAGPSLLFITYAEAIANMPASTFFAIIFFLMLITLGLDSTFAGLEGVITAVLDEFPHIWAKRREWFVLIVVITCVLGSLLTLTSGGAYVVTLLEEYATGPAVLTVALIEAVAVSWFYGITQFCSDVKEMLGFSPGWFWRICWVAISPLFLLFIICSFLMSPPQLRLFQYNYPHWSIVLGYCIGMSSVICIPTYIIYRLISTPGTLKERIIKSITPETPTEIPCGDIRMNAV
Protocol: The synaptosomes (150 μg) prepared from the rat brain were incubated at 37° C. for 15 minutes with 0.1 μCi [^3H]5-HT in the absence or presence of the test compound or the reference compound in a buffer solution containing 106.2 mM NaCl, 4.5 mM KCl, 2.25 mM MgSO4, 1.08 mM NaH2PO4, 22.5 mM NaHCO3, 9.9 mM glucose, 9 μM EGTA and 45 μM ascorbic acid (pH 7.4).
Inhibition of serotonin transporter in rat synaptosome was measured by the concentrations of [^3H]5-HT.

5-HT1A receptor = 5-HT1A receptor (Homo sapiens (Human), UniProt P08908); test: Affinity for human 5-HT1A receptor ([3H]8-OH-DPAT binding, HEK-293 cell homogenates); conditions: read-out: Ki, binding affinity for 5-HT1A receptor; 0.3 nM [3H]8-OH-DPAT, human HEK-293 cell homogenates, 22° C., 60 minutes;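 also: Filter-retained radioactivity counted by scintillation, non-specific binding defined with 10 µM 8-OH-DPAT, Ki derived from percent inhibition of specific radioligand binding versus control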
5-HT1A receptor, sequence (P08908 whole entry): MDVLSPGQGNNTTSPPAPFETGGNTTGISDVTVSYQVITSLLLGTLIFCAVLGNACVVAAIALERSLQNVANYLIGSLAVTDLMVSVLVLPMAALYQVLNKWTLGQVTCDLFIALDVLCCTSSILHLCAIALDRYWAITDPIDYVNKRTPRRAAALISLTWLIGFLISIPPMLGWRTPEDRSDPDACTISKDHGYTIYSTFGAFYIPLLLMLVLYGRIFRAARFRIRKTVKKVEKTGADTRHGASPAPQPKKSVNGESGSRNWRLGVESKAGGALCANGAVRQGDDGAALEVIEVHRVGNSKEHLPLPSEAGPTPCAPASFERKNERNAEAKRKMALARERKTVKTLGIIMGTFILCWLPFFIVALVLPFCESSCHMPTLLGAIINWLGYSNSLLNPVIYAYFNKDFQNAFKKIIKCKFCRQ
Protocol: The non-specific binding value was determined by incubating the same mixture in the presence of 10 μM 8-OH-DPAT, which was used as the standard reference compound and tested in each experiment at several concentrations to obtain a competition curve.
Following the incubation, the samples were filtered rapidly under vacuum through glass fiber filter (GF/B, Packard) presoaked with 0.3% PEI and rinsed several times with ice-cold 50 mM Tris-HCl using a 96-sample cell harvester (Unifilter, Packard). The filters were dried and the retained radioactivity was measured in a scintillation counter (Topcount, Packard) using a scintillation cocktail (Microscint 0, Packard). The experimental results were expressed as a percent inhibition of the control radioligand specific binding, and Ki was the inhibition constant.

dopamine D2S receptor, sequence (P14416 other isoform, or with tags, fused parts or gaps): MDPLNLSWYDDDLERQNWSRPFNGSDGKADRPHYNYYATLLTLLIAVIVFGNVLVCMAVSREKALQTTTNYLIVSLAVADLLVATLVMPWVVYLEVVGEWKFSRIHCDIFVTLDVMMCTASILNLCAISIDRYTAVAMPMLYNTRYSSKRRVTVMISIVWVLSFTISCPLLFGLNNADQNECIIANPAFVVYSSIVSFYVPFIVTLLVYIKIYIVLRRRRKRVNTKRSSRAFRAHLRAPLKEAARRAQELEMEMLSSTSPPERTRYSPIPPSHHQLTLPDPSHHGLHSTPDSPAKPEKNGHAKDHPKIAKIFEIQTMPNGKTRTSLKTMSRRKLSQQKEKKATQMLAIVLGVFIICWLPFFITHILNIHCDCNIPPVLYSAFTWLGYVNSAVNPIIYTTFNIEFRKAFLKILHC

| Compound | Ki (dopamine D2S receptor) [nM] | IC50 (serotonin transporter) [nM] | Ki (5-HT1A receptor) [nM] |
| --- | --- | --- | --- |
| N#Cc1ccc2[nH]cc(CCCN3CCN(c4nccc(C#N)n4)CC3)c2c1 [Example 26, 3-(3-(4-(4-Cyanopyrimidin-2-yl)piperazin-1-yl)propyl)-1H-indole-5-carbonitrile] | 190 | 2.6 | 8 |
| NC(=O)c1ccnc(N2CCN(CCCCc3c[nH]c4ccc(F)cc34)CC2)n1 [Example 27, 2-(4-(4-(5-Fluoro-1H-indol-3-yl)butyl)piperazin-1-yl)pyrimidine-4-carboxamide] | > 1000 | 2.7 | 60 |
| N#Cc1ccc2[nH]cc(CCCCN3CCN(c4nccc(C(N)=O)n4)CC3)c2c1 [Example 28, 2-(4-(4-(5-Cyano-1H-indol-3-yl)butyl)piperazin-1-yl)pyrimidine-4-carboxamide] | 310 | 1 | 10 |
| NC(=O)c1ccnc(N2CCN(CCCc3c[nH]c4ccc(F)cc34)CC2)n1 [Example 29, 2-(4-(3-(5-Fluoro-1H-indol-3-yl)propyl)piperazin-1-yl)pyrimidine-4-carboxamide] | 230 | 1.4 | 12 |
| N#Cc1ccc2[nH]cc(CCCN3CCN(c4nccc(C(N)=O)n4)CC3)c2c1 [Example 30, 2-(4-(3-(5-Cyano-1H-indol-3-yl)propyl)piperazin-1-yl)pyrimidine-4-carboxamide] | > 1000 | 0.75 | 14 |
| CCOC(=O)c1sc(N2CCN(CCCCc3c[nH]c4ccc(F)cc34)CC2)nc1C [Example 37, Ethyl 2-(4-(4-(5-fluoro-1H-indol-3-yl)butyl)piperazin-1-yl)-4-methylthiazole-5-carboxylate] | 130 | 7 | 5.5 |
| CCOC(=O)c1sc(N2CCN(CCCc3c[nH]c4ccc(F)cc34)CC2)nc1C [Example 38, Ethyl 2-(4-(3-(5-fluoro-1H-indol-3-yl)propyl)piperazin-1-yl)-4-methylthiazole-5-carboxylate] | 270 | 11 | 0.27 |
| CCOC(=O)c1sc(N2CCN(CCCc3c[nH]c4ccc(C#N)cc34)CC2)nc1C [Example 40, Ethyl 2-(4-(3-(5-cyano-1H-indol-3-yl)propyl)piperazin-1-yl)-4-methylthiazole-5-carboxylate] | > 1000 | 3.5 | 0.3 |
| Cc1nc(N2CCN(CCCCc3c[nH]c4ccc(F)cc34)CC2)sc1C(N)=O [Example 41, 2-(4-(4-(5-Fluoro-1H-indol-3-yl)butyl)piperazin-1-yl)-4-methylthiazole-5-carboxamide] | 140 | 2.4 | 23 |
| Cc1nc(N2CCN(CCCc3c[nH]c4ccc(F)cc34)CC2)sc1C(N)=O [Example 42, 2-(4-(3-(5-Fluoro-1H-indol-3-yl)propyl)piperazin-1-yl)-4-methylthiazole-5-carboxamide] | 310 | 5.3 | 4.5 |
| Cc1nc(N2CCN(CCCc3c[nH]c4ccc(C#N)cc34)CC2)sc1C(N)=O [Example 44, 2-(4-(3-(5-Cyano-1H-indol-3-yl)propyl)piperazin-1-yl)-4-methylthiazole-5-carboxamide] | > 1000 | 4.3 | 3.7 |
| Cc1nc(N2CCN(CCCCc3c[nH]c4ccc(F)cc34)CC2)sc1C#N [Example 45, 2-(4-(4-(5-Fluoro-1H-indol-3-yl)butyl)piperazin-1-yl)-4-methylthiazole-5-carbonitrile] | > 1000 | 8.3 | 14 |
| Cc1nc(N2CCN(CCCc3c[nH]c4ccc(F)cc34)CC2)sc1C#N [Example 46, 2-(4-(3-(5-Fluoro-1H-indol-3-yl)propyl)piperazin-1-yl)-4-methylthiazole-5-carbonitrile] | > 1000 | 18 | 4.2 |
| Cc1nc(N2CCN(CCCCc3c[nH]c4ccc(C#N)cc34)CC2)sc1C#N [Example 47, 2-(4-(4-(5-Cyano-1H-indol-3-yl)butyl)piperazin-1-yl)-4-methylthiazole-5-carbonitrile] | 130 | 1.5 | 5 |
